Consider two compounds from patent EP2945947B1, “INHIBITING THE TRANSIENT RECEPTOR POTENTIAL A1 ION CHANNEL” (Merck Sharp & Dohme Corp., priority 2013, dated 2014).

The structures appear in SMILES notation. ≈ marks a conversion by molar mass, not a printed value. Like-named read-outs stand apart in the source and are kept apart here. Marks after values point to notes of the source that are not given here. Where only a bound is given, the exact number is not on record here.

One series has as its target human TRPA1 (Homo sapiens, UniProt O75762). Briefly: Inhibition of the TRPA1 ion channel, whole cell patch configuration (Example 1). The series is classed as cell-based. As to conditions: current activation 10 µM AITC, read-out: Human TRPA1 IC50 Inward Current. The protocol:
Compounds of Formula (Ia) inhibit the TRPA1 channel, as measured using the method of Example 1. […] Data for TRPA1 inhibition and for TRPA1 selectivity was obtained by this method for the indicated compounds of Formula (Ia), with the relevant data included in Tables 1a - f below. All currents were recorded in whole-cell configuration using EPC-9 and EPC-10 amplifiers and Patchmaster software (HEKA). […] The standard pipette solution consisted of 140mM CsAsp, 10 mM EGTA, 10 mM HEPES, 2.27 mM MgCl2, 1.91 mM CaCl2, 4 mM MgATP, and 0.1-0.3 mM Na2GTP, with pH adjusted to 7.2 with CsOH. In addition, a solution containing 145 mM CsCl, 10 mM HEPES, 10 mM EGTA and 1 mM MgCl2 (pH 7.2 adjusted with CsOH) can be used. The standard bath solution contained 150 mM NaCl, 10 mM HEPES, 10 mM glucose, 4.5 mM KCl, 1 mM EGTA, 3 mM MgCl2, with pH adjusted to 7.4 with NaOH. In some instances, 2 mM CaCl2 was added in place of EGTA and the concentration of MgCl2 was reduced to 1 mM.
Data were collected either by continuous recordings at -60 mV or by applying voltage ramps from a holding potential of 0 mV every 4 s. Continuous recordings were collected at 400 Hz and digitally filtered off-line at 10 Hz for presentation. Voltage ramps were applied from - 100 mV to 100 mV over the course of 400 ms, and data were collected at 10 kHz and filtered at 2.9 kHz. Inward and outward currents were analyzed from the ramps at -80 and 80 mV, respectively. Liquid junction potential correction was not used.
Solutions were switched using a gravity-fed continuous focal perfusion system. To achieve rapid temperature changes, two temperature control, and perfusion systems were employed simultaneously. For temperatures ≥ 22°C, a Warner Instruments bipolar temperature controller (TC-344B) and inline heater (SHM-8) were used. […] Temperatures were confirmed using a thermistor (Warner Instruments, TA-29), with temperatures at the recorded cell estimated to be within +/- 2°C of those reported.
The antagonist effects of compounds of Formula (Ia) against human TRPA1 ("hTRPA1") and for some compounds rat TRPA1 ("rTRPA1") in a whole cell patch configuration were evaluated using the in vitro assay described above. The current activation tested was 10 µM AITC, and the tested concentrations ranged from 5 µM and 500 nM. Table 1a (Comparative Compounds)

The next series relates to sheep. Briefly: Sheep model of experimental allergic asthma, Ascaris suum antigen challenge (Example 6). In kind it is in vivo. The settings on record: for inhibition of the AHR / inhibition of the EAR / inhibition of the LAR: sheep; for Average Early Airway Response (EAR) / Average Late Airway Response (LAR) / Airway Hyperresponsiveness (AHR): 4 days; for Average Early Airway Response (EAR): average increase in RL 0-4h after challenge; for Average Late Airway Response (LAR): average increase in RL 5-8h after challenge; for Airway Hyperresponsiveness (AHR): ratio of post challenge PC400 to pre challenge PC400. The protocol:
Compounds were tested in the sheep model of experimental asthma reported in Abraham WM, Asthma & Rhinitis, 2000: 1205-1227. All animals were tested for both early and late stage airway responses to inhalation challenge with Ascaris suum antigen.
The unsedated sheep were restrained in a cart in the prone position with their heads immobilized. After topical anesthesia of the nasal passages with 2% lidocaine solution, a balloon catheter was advanced through one nostril into the lower esophagus. The animals were intubated with a cuffed endotracheal tube through the other nostril. Pleural pressure was estimated with the esophageal balloon catheter. Lateral pressure in the trachea was measured with a sidehole catheter advanced through and positioned distal to the tip of the endotracheal tube. Transpulmonary pressure, the difference between tracheal and pleural pressure, was measured with a differential pressure transducer catheter system. For the measurement of pulmonary resistance (RL), the proximal end of the endotracheal tube was connected to a pneumotachograph. The signals of flow and transpulmonary pressure were recorded on an oscilloscope recorder, which was linked to a computer for on-line calculation of RL from transpulmonary pressure, respiratory volume (obtained by digital integration) and flow. Analysis of 5-10 breaths were used for the determination of RL in cm H2O / L x sec^-1.
Aerosols of Ascaris suum extract (diluted 20:1 with phosphate buffered saline; 82,000 PNU/ml) were generated using a disposable medical nebulizer (Raindrop^R, Puritan Bennett). The output from the nebulizer was directed into a plastic t-piece, one end of which was connected to the inspiratory port of a Harvard respirator. To better control aerosol delivery, a dosimeter consisting of a solenoid valve and a source of compressed air (20 psi) was activated at the beginning of the inspiratory cycle of the Harvard respirator system for 1 s. The aerosol was delivered at a tidal volume of 500 ml and a rate of 20 breaths per minute. Each sheep was challenged with an equivalent dose of antigen in the control and drug trials. Carbachol aerosols were also generated with this same nebulizer system.
For the carbachol concentration response curves, measurements of RL were repeated immediately after inhalation of buffer and after each administration of 10 breaths of increasing concentrations of carbachol solution (0.25%, 0.5%, 1.0%, 2.0% and 4.0% w/v). To assess airway responsiveness, the cumulative carbachol dose in breath units (BU) that increased RL 400% over the post-buffer value (i.e. PC 400) was calculated from the dose response curve. One breath unit was defined as one breath of a 1% w/v carbachol solution.
Compound 5-T was given at doses of 1, 3 and 10 mg/kg given orally once a day for 3 days and on day 4, 2 hours before antigen challenge. A group of sheep also received a vehicle control.
A pre-challenge (baseline) PC 400 was obtained 1-3 days before the start of dosing. Then on the day of antigen challenge, the sheep received the last dose of Compound 5-T 2h before antigen challenge. Values of lung resistance (RL) were measured at baseline, 1.5 h after drug treatment and, then, serially for 8h after challenge with Ascaris suum antigen. Measurements of RL were obtained 24 h after challenge followed by the 24 h post challenge determination of PC 400. Responses to antigen challenge with drug and/or vehicle treatment were compared to each animal's historical control.
Two groups of animals (n=3) were used for these studies. Group 1 received the vehicle control and the 1 mg/kg dose. Group 2 received the 3 mg/kg dose and the 10 mg/kg dose. A Repeated Measures Analysis of Variance was used to compare the responses within each group to their historical control. If a significant difference was found, then Tukey's post hoc test was used to determine pair wise differences. […]

Series [1] in a line: Aqueous solubility in buffered solutions, HPLC (Example 2). In kind it is physicochemical. The settings on record: kinetic from dmso stock, ambient temperature.
For another series, the system named is rats. As to the kind of experiment: Rodent formalin pain model (Example 3). The series is classed as in vivo. As to conditions: rat; for Duration of Pain Behavior: first two minutes after formalin, vehicle 88.6. The protocol: Compounds of Formula (Ia) are active in rodent models of pain induced by direct activation of the TRPA1 channel with intraplantar injection of the TRPA1 agonist formalin. Compounds of Formula (Ia) were tested in the formalin-induced pain test reported by Abbott et. al. Pain. 1995 Jan;60(1):91-102. Dubuisson et al. describe a method for assessing pain and analgesia in rats. Briefly, dilute formalin (50 µL of 3 % formalin) is injected into the plantar surface of the hind paw. […] The individual responsible for counting the pain behaviors in a particular study is blinded to the treatment groups.
Table 2 is a data table showing the results from testing compounds of Formula (Ia) in the rodent formalin-induced pain model described in […]. Rats were treated with the compounds of Formula (Ia) at various doses (0.1, 0.3, 1, 1.2, 3, 4, 10, or 30 mg/Kg IV) or with a control composition containing the vehicle (i.e., without a compound of Formula (Ia)). Pain behaviors (flinch, lift, lick, bite) were monitored following intraplantar formalin injection. Referring to Table 2, the minimum effective dose was derived from dose resulting in statistically significant difference in behavior at 0 - 2 min time period as compared with vehicle (p≤0.05).

The subject of series [2] is Female Sprague Dawley rats. Briefly: Rodent acute tolerability test with liver function tests (Example 5). The series is classed as in vivo, rat. The settings on record: single IV bolus dose 130 mg/kg, about 24 hours post dose. Details: key to Alterations in LFT: (↔) indicates blood levels of markers for potential liver damage within normal range; (↑) indicates blood levels of markers for potential liver damage elevated above normal range. The protocol:
Compounds of Formula (Ia) were assessed for acute tolerability in a rodent model at dose levels ranging from 100 - 200 mg/kg based upon the minimum efficacious dose of each compound. Female Sprague Dawley rats were administered up to a 10 mL/kg dose volume of each compound in 0.9% saline at appropriate concentrations as an intravenous bolus via the lateral tail vein. The animals were observed immediately post dose and for up to twenty four hours post dose and clinical observations were recorded. Additionally, approximately twenty four hours post dose animals were euthanized and blood taken for serum chemistry analysis with a focus on liver function tests (LFTs). The maximum tolerated single dose and LFT results are summarized in Table 3, where (↔) indicates blood levels of markers for potential liver damage within normal range and (↑) indicates blood levels of markers for potential liver damage elevated above normal range. Referring to the data in Table 3, LFT blood levels of markers for potential liver damage remained within normal range for the compounds of Formula (Ia), while LFTs were elevated for Comparator Compounds including 5-10 fold elevation above normal for ALT and AST blood levels observed upon administration of Comparative Compound 1. […]

Where [3] appears, read: sodium bicarbonate buffer in water for injection/5% dextrose, pH 9.0, 50 mM sodium bicarbonate, read-out: pH 9.0 aqueous solubility.
Setting [4] is: sodium phosphate buffer in water for injection/5% dextrose, pH 7.4, 75 mM sodium phosphate, read-out: pH 7.4 aqueous solubility.

Chain of human TRPA1 (O75762 whole entry): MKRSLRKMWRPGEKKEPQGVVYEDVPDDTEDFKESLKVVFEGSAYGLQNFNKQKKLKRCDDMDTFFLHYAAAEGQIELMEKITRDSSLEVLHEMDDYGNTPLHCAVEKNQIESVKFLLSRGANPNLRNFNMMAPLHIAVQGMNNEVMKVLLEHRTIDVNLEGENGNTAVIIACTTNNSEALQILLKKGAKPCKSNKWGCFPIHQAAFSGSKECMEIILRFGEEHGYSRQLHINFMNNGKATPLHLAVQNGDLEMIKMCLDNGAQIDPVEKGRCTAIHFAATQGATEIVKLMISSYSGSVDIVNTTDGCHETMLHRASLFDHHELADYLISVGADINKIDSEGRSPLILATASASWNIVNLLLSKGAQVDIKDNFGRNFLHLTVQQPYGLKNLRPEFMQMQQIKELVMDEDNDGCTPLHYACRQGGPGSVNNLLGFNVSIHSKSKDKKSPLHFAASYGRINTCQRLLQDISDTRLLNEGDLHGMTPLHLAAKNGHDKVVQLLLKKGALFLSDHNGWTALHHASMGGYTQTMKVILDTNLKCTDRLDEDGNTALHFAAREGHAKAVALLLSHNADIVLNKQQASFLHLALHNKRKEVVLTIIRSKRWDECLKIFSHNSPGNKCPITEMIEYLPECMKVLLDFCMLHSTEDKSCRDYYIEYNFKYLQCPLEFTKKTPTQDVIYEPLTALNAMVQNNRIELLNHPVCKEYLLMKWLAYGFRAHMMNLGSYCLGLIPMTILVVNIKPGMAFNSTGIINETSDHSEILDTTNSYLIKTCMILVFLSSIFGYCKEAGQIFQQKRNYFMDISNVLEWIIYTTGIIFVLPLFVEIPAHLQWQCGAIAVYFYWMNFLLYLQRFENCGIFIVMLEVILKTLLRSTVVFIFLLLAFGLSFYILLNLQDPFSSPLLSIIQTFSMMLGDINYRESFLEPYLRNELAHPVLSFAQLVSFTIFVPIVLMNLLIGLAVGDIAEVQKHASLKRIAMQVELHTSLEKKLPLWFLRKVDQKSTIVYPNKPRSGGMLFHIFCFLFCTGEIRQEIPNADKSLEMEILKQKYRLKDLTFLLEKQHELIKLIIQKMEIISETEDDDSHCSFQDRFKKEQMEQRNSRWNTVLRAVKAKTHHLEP

The IC50 is the concentration needed to halve the response being measured. Regarding `C[C@@H](C(=O)Nc1cncc(-c2cnc(N3CCC[C@H]3C(F)(F)F)nc2)n1)n1cnc2c1c(=O)n(C)c(=O)n2C` [Compound 5-T, (S)-2-(1,3-dimethyl-2,6-dioxo-1,2,3,6-tetrahydro-7H-purin-7-yl)-N-(6-(2-((S)-2-(trifluoromethyl)pyrrolidin-1-yl)pyrimidin-5-yl)pyrazin-2-yl)propanamide], the 50% inhibitory concentration (IC50) on human TRPA1 was less than 0.025 µM. For the same compound, the entries for the “inhibition of the AHR” value in the series on sheep (1 mg/Kg dose), with sheep (3 mg/Kg dose) and in the series with sheep (10 mg/Kg dose) were 45%, 100% and 100%, respectively. For the same compound, the entries for the “inhibition of the EAR” value in the series on sheep (1 mg/Kg dose), in the series with sheep (3 mg/Kg dose) and with sheep (10 mg/Kg dose) were “no effect on EAR”, 51% and 72%, respectively. Moreover, the “inhibition of the LAR” value in the series on sheep (1 mg/Kg dose) is on record as 48%; in the series with sheep (3 mg/Kg dose) it was 78%; in the series with sheep (10 mg/Kg dose) it was 79%. The “Average Early Airway Response (EAR)” value in the series with sheep (1 mg/Kg orally once a day, Control 1 175 ± 25) was 171 ± 17; in the series on sheep (3 mg/Kg orally once a day, Control 2 195 ± 15), 95 ± 6; in the series on sheep (10 mg/Kg orally once a day, Control 2 195 ± 15) it was 55 ± 2*^. Also, the “Average Late Airway Response (LAR)” value in the series with sheep (1 mg/Kg orally once a day, Control 1 113 ± 4) is reported as 59 ± 1*^+; in the series on sheep (3 mg/Kg orally once a day, Control 2 107 ± 5), 24 ± 1; with sheep (10 mg/Kg orally once a day, Control 2 107 ± 5), 22 ± 3. The “Airway Hyperresponsiveness (AHR)” value in the series on sheep (1 mg/Kg orally once a day, Control 1 0.49 ± 0.04) was 0.71 ± 0.01*^+; in the series on sheep (3 mg/Kg orally once a day, Control 2 0.41 ± 0.01), 0.92 ± 0.08; in the series with sheep (10 mg/Kg orally once a day, Control 2 0.41 ± 0.01), 1.00 ± 0.14. Besides, the “inhibition of the average early airway response (EAR), compared to Comparative Compound 2” value in the series with sheep (at the doses tested) was “improved inhibition”. In addition, the “inhibition of the average late airway response (LAR) and the airway hyperresponsiveness (AHR)” value in the series with sheep (doses 1, 3 and 10 mg/kg orally) is reported as “dose dependent inhibition”. Further, the solubility kinetic at 24 h in series [1] (setting [3]) is 7 µg/mL (≈ 12.9 µM); in series [1] (setting [4]), 5 µg/mL (≈ 9.18 µM).
For `C[C@H]1CCCN1c1ncc(-c2cncc(N(COP(=O)(O)O)C(=O)[C@H](C)n3cnc4c3c(=O)n(C)c(=O)n4C)n2)cn1` [Compound 3-J, ((S)-2-(1,3-dimethyl-2,6-dioxo-1,2,3,6-tetrahydro-7H-purin-7-yl)-N-(6-(2-((S)-2-methylpyrrolidin-1-yl)pyrimidin-5-yl)pyrazin-2-yl)propanamido)methyl dihydrogen phosphate], the IC50 at human TRPA1 was more than 0.1 µM. Besides, in the series with rats (IV, statistically significant difference vs vehicle at 0 - 2 min (p≤0.05)), the “Minimal Efficacious Dose of Compound in Formalin Model” value is on record as 3 mg/kg. Also, the “Duration of Pain Behavior” value in the series with rats (dose 3 mg/kg IV) is 39.7 s; in the series with rats (dose 10 mg/kg IV), 1.6 s. In addition, the “Alterations in LFT” value in series [2] is reported as “↔”. Also, in series [2], the “LFT: % upper normal range ALT serum levels” value is less than 100%/<100%. Further, the “LFT: % upper normal range AST serum levels” value in series [2] is less than 100%/<100%. Further, the solubility kinetic at 24 h in series [1] (setting [3]) and in series [1] (setting [4]) was more than 1000 µg/mL each time.
